In series [1] the test system is multiresistant Dd2 strain of Plasmodium falciparum. Kind of series: Antiplasmodial activity against Dd2 strain of Plasmodium falciparum ([8-3H]hypoxanthine incorporation). Conditions: 66 h, P. falciparum Dd2, 48 h + 18 h with [8-3H]hypoxanthine, 50% parasite growth inhibition, read-out: Antiplasmodia activity (IC50 class). It counts as cell-based. The procedure:
For the determination of the antiplasmodial activity of the compounds described above, the multiresistant Dd2 strain of Plasmodium falciparum was used. The incorporation of [8-^3H]hypoxanthine into the parasitic nucleic acids was measured. The plasmodia were incubated at 0.3% parasitaemia and an erythrocyte haematocrit of 2.5% in the presence of different concentrations of the compounds in a final volume of 200 μl. The medium employed was RPMI 1640 which contained 10% of heat-treated human serum and 3 mg/l of gentamycin. In the incubations, the concentrations of the compounds varied from 0.001 to 100 μM. After 48 h, each batch was treated with 50 μl of [8-^3H]hypoxanthine (1 mCi/ml) and incubated for a further 18 h. The cells were filtered off, washed and suspended in 20 μl of scintillation fluid. The radioactive hypoxanthine absorbed by the parasites was then quantified using a scintillation counter. The results were presented graphically and the IC50 value was determined using a fitting function. The value IC50, the ‘inhibition constant’, indicates the value in μMol/l at which 50% parasite growth inhibition occurs (R. E. Desjardins, et al., Antimicrobiol. Agent Chemother. 16, pp. 710-718, 1979; J. D. Chulay, et al., Exp. Parasitol. 55, pp. 138-146, 1983).

Series [2] is described as follows: In vitro clearance using human liver microsomes. It is filed as in vitro ADME. Conditions: human liver microsomes 0.5 mg/ml, 1 μM compound, 37° C., 0-30 min. As to the method:
These experiments were performed at Nikem Research (Via Zambeletti 25; Baranzate, Milan, Italy). Test compounds in duplicate at the final concentration of 1 μM were dissolved in DMSO and pre-incubated for 10 min at 37° C. in phosphate buffer pH 7.4, 3 mM MgCl2, with human liver microsomes at the final concentration of 0.5 mg/ml. After the pre-incubation period, reaction was started by adding the cofactor mixture (NADP, Glc6P, G6P-DH); samples were taken at time 0, 5, 10, 15, 20 and 30 min and added to acetonitrile to quench the metabolic reaction, centrifuged and supernatant analysed and quantified by HPLC/MS. A control sample without cofactors was always added in order to check the chemical stability of test compounds. 7-ethoxycoumarin was added as reference standard. A fixed concentration of verapamil was added in every sample as internal standard for HPLC/MS. The concentration of the remaining compound at different times was determined by HPLC/MS. The rate constant, k (min^−1) derived for the exponential decay equation (peak area vs time) was used to calculate the rate of intrinsic clearance (Cli) of the compounds using the following equations: Cli (μl/min/mg compound)=k×V; where: V (μl/mg compound)=incubation volume/mg compound added. In table 3 the clearance (in vitro metabolic stability) classification was as follows: Cli<10=compound stable; Cli between 10 and 60=low metabolism; Cli between 60 and 600=medium metabolism Cli>600=high metabolism.

The nature of series [3]: Solubility and solubility-range determination in 50 mM phosphate buffer at different pH. It is filed as physicochemical. Particulars: aqueous buffer, kinetic from dmso stock, 1% DMSO, 23° C., read-out: Solubility or solubility range. The procedure:
The compounds were dissolved in DMSO at a concentration of 20 mg/ml. These stock solutions were further diluted 1:1 with DMSO (50 μl solution+50 μl DMSO) in seven steps. Subsequently, these solutions were diluted 1:100 (5 μl DMSO-stock+495 μl 50 mM phosphate buffer) in all four pH buffers (respectively: pH=4; pH=6; pH=7.4; pH=9) resulting in a final DMSO concentration of 1% in the buffers. These dilutions were vigorously mixed and transferred into 96-well reading plate. The plates were incubated in a shaker (600 rpm) at 23° C. for 24 hours. After that, the contents of the wells were mixed with a pipette and optical density (OD) was recorded at wavelengths of 550 nm; 600 nm; 650 nm and 700 nm in the Tecan Sunrise plate reader. The cut-off OD sum for an undissolved concentration of a compound was defined as follows: Cut off OD sum=mean blank OD+0.050 OD. For the determination of the solubility range, the following rule was applied: OD>cut off=>compound not dissolved at this concentration OD<cut-off=>compound dissolved at this concentration For the determination of the solubility, a titration curve (OD/concentration) was prepared and the concentrations were determined based on the measured OD of the mixture supernatant after centrifugation. The solubility values are given in μg/ml (table 3).

The values that follow come from patent US8343963B2, “Sulfamoyl-phenyl-ureido compounds and their use as medicament” (4SC AG, priority 2009, dated 2013).

SMILES strings stand for the structures. Like-named read-outs stand apart in the source and are kept apart here.

In general, IC50 refers to the concentration that gives 50% inhibition. `COCCN1CCN(C(=N)c2cccc(NC(=O)Nc3ccc(S(=O)(=O)NCc4ccc(S(N)(=O)=O)cc4)cc3)c2)CC1` [Compound 69, 4-(3-(3-(imino(4-(2-methoxyethyl)piperazin-1-yl)methyl)phenyl)ureido)-N-(4-sulfamoylbenzyl)benzene sulfonamide]: in series [1], the IC50 was 20 to 200 nM. In series [2], the “In vitro metabolism as determined from Cli” value (“In vitro metabolism” below) was “medium (Cli between 60 and 600=medium metabolism)”.
As to `CN1CCN(C(=N)c2cccc(NC(=O)Nc3ccc(S(=O)(=O)NCc4ccc(S(N)(=O)=O)cc4)cc3)c2)CC1` [Compound 53, 4-(3-(3-(imino(4-methylpiperazin-1-yl)methyl)phenyl)ureido)-N-(4-sulfamoylbenzyl)benzenesulfonamide], the 50% inhibitory concentration (IC50) in series [1] is 210 to 990 nM. The “In vitro metabolism” value in series [2] is “low (Cli between 10 and 60=low metabolism)”.
Turning to `CCCCN1CCN(C(=N)c2cccc(NC(=O)Nc3ccc(S(=O)(=O)NCc4ccc(S(N)(=O)=O)cc4)cc3)c2)CC1=O` [Compound 63, 4-(3-(3-((4-butyl-3-oxopiperazin-1-yl)(imino)methyl)phenyl)ureido)-N-(4-sulfamoylbenzyl)benzenesulfonamide], in series [1], the IC50 was under 20 nM. The “In vitro metabolism” value in series [2] was “medium (Cli between 60 and 600=medium metabolism)”.
As to `CCCCN1CCN(C(=N)c2cccc(NC(=O)Nc3ccc(S(=O)(=O)NCc4ccc(S(N)(=O)=O)s4)cc3)c2)CC1` [Compound 70, 5-((4-(3-(3-((4-butylpiperazin-1-yl)(imino)methyl)phenyl)ureido)phenylsulfonamido)methyl)thiophene-2-sulfonamide], the IC50 in series [1] lay in the range of 20 to 200 nM. Also, the “In vitro metabolism” value in series [2] is “medium (Cli between 60 and 600=medium metabolism)”.
On to `CCN1CCN(C(=N)c2cccc(NC(=O)Nc3ccc(S(=O)(=O)NCc4ccc(S(N)(=O)=O)cc4)cc3)c2)CC1` [Compound 37, 4-(3-(3-((4-ethylpiperazin-1-yl)(imino)methyl)phenyl)ureido)-N-(4-sulfamoylbenzyl)benzenesulfonamide], for which the IC50 in series [1] fell in the range of 20 to 200 nM. In addition, the “In vitro metabolism” value in series [2] was “medium (Cli between 60 and 600=medium metabolism)”.
On to `CC(C)N1CCN(C(=N)c2cccc(NC(=O)Nc3ccc(S(=O)(=O)NCc4ccc(S(N)(=O)=O)cc4)cc3)c2)CC1` [Compound 54, 4-(3-(3-(imino(4-isopropylpiperazin-1-yl)methyl)phenyl)ureido)-N-(4-sulfamoylbenzyl)benzenesulfonamide], for which the IC50 in series [1] was 20 to 200 nM. For the same molecule, the “In vitro metabolism” value in series [2] was “medium (Cli between 60 and 600=medium metabolism)”.
Take `N=C(c1cccc(NC(=O)Nc2ccc(S(=O)(=O)NCc3ccc(S(N)(=O)=O)cc3)cc2)c1)N1CCOCC1` [Compound 43, 4-(3-(3-(imino (morpholino)methyl)phenyl)ureido)-N-(4-sulfamoylbenzyl)benzenesulfonamide]: the IC50 in series [1] was in the range of 20 to 200 nM. Also, the “In vitro metabolism” value in series [2] is “medium (Cli between 60 and 600=medium metabolism)”.
With `CCCCN1CCN(C(=N)c2cccc(NC(=O)Nc3ccc(S(=O)(=O)NCCC)cc3)c2)CC1` [Compound 19, 4-(3-(3-((4-butylpiperazin-1-yl)(imino)methyl)phenyl)ureido)-N-propylbenzenesulfonamide], the IC50 in series [1] was at least 1000 nM.
The same measure, in the same setting: to `CCN(CC)CCN(C)C(=N)c1cccc(NC(=O)Nc2ccc(S(=O)(=O)NCc3ccc(S(N)(=O)=O)cc3)cc2)c1` [Compound 47, N-(2-(diethylamino)ethyl)-N-methyl-3-(3-(4-(N-(4-sulfamoylbenzyl)sulfamoyl)phenyl)ureido)benzimidamide] belongs 20 to 200 nM; to `N=C(c1cccc(NC(=O)Nc2ccc(S(=O)(=O)NCc3ccc(S(N)(=O)=O)cc3)cc2)c1)N1CCC(CO)CC1` [Compound 29, 4-(3-(3-((4-(hydroxymethyl)piperidin-1-yl)(imino)methyl)phenyl)ureido)-N-(4-sulfamoylbenzyl)benzenesulfonamide], 210 to 990 nM; to `CCCCN1CCN(C(=N)c2cccc(NC(=O)Nc3ccc(S(=O)(=O)N4CCOCC4)cc3)c2)CC1` [Compound 21, 1-(3-((4-butylpiperazin-1-yl)(imino)methyl)phenyl)-3-(4-(morpholinosulfonyl)phenyl)urea], at least 1000 nM.
As for `N=C(c1cccc(NC(=O)Nc2ccc(S(=O)(=O)c3ccc([N+](=O)[O-])cc3)cc2)c1)N1CCOCC1` [Compound 6, 1-(3-(imino(morpholino)methyl)phenyl)-3-(4-(4-nitrophenylsulfonyl)phenyl)urea], the half-inhibitory concentration (IC50) in series [1] lay within 20 to 200 nM.
Still for that read-out and setting: to `N=C(c1cccc(NC(=O)Nc2ccc(S(=O)(=O)NCc3ccc(S(N)(=O)=O)cc3)cc2)c1)N1CCCC1` [Compound 46, 4-(3-(3-(imino(pyrrolidin-1-yl)methyl)phenyl)ureido)-N-(4-sulfamoylbenzyl)benzenesulfonamide] belongs 20 to 200 nM.
The same measure, in the same setting: to `N=C(c1cccc(NC(=O)Nc2ccc(S(N)(=O)=O)cc2)c1)N1CCC(O)CC1` [Compound 2, 4-(3-(3-((4-hydroxypiperidin-1-yl)(imino)methyl)phenyl)ureido)benzenesulfonamide] belongs at least 1000 nM; to `COCCN(CCOC)C(=N)c1cccc(NC(=O)Nc2ccc(S(=O)(=O)c3ccc(Br)cc3)cc2)c1` [Compound 13, 3-(3-(4-(4-bromophenylsulfonyl)phenyl)ureido)-N,N-bis(2-methoxyethyl)benzimidamide], at least 1000 nM.
Broadly, the solubility is the concentration that dissolves in the medium under given conditions. In the case of `N=C(c1cccc(NC(=O)Nc2ccc(S(=O)(=O)NCc3ccc(S(N)(=O)=O)cc3)cc2)c1)N1CCS(=O)(=O)CC1` [Compound 44, 4-(3-(3-((1,1-dioxidothiomorpholino)(imino)methyl)phenyl)ureido)-N-(4-sulfamoylbenzyl)benzenesulfonamide], the IC50 in series [1] lay within 20 to 200 nM. In addition, the solubility at 24 h was over 200 µg/mL in series [3] (pH 4, 50 mM phosphate buffer); over 200 µg/mL in series [3] (pH 6, 50 mM phosphate buffer); over 200 µg/mL in series [3] (pH 7.4, 50 mM phosphate buffer); over 200 µg/mL in series [3] (pH 9, 50 mM phosphate buffer).
Turning to `N=C(c1cccc(NC(=O)Nc2ccc(S(=O)(=O)c3ccc([N+](=O)[O-])cc3)cc2)c1)N1CCCC1` [Compound 7, 1-(3-(imino(pyrrolidin-1-yl)methyl)phenyl)-3-(4-(4-nitrophenylsulfonyl)phenyl)urea], the 50% inhibitory concentration (IC50) in series [1] lay within 20 to 200 nM.
Turning to `N=C(c1cccc(NC(=O)Nc2ccc(S(=O)(=O)NCc3ccc(S(N)(=O)=O)cc3)cc2)c1)N1CCN(Cc2ccncc2)CC1` [Compound 45, 4-(3-(3-(imino (4-(pyridin-4-ylmethyl)piperazin-1-yl)methyl)phenyl)ureido)-N-(4-sulfamoylbenzyl)benzenesulfonamide], the IC50 in series [1] was 210 to 990 nM.
Same read-out and setting: under `CCCCN1CCN(C(=N)c2cccc(NC(=O)Nc3ccc(S(=O)(=O)NC)cc3)c2)CC1` [Compound 18, 4-(3-(3-((4-butylpiperazin-1-yl)(imino)methyl)phenyl)ureido)-N-methylbenzenesulfonamide] stands at least 1000 nM.
